Numbers after ± are expanded uncertainties.
Conditions: 101 kPa, Liquid; for viscosity: Capillary tube (Ostwald / Ubbelohde) method; for speed of sound: Linear variable-path acoustic interferometer; for mass density: Pycnometric method

CN(C)C=O [dimethylformamide]
viscosity (288.15 K): 0.9452 ± 0.0081 mPa·s
speed of sound (288.15 K): 1503.3 ± 1.7 m/s
mass density (288.15 K): 953.61 ± 0.29 kg/m3
viscosity (293.15 K): 0.8685 ± 0.0075 mPa·s
speed of sound (293.15 K): 1485.8 ± 1.7 m/s
mass density (293.15 K): 949.1 ± 0.28 kg/m3
viscosity (298.15 K): 0.8123 ± 0.0071 mPa·s
speed of sound (298.15 K): 1469.5 ± 1.6 m/s
mass density (298.15 K): 944.6 ± 0.29 kg/m3
viscosity (303.15 K): 0.7647 ± 0.0067 mPa·s
speed of sound (303.15 K): 1448.8 ± 1.6 m/s
mass density (303.15 K): 940.1 ± 0.3 kg/m3
viscosity (308.15 K): 0.7189 ± 0.0064 mPa·s
speed of sound (308.15 K): 1429.1 ± 1.6 m/s
mass density (308.15 K): 935.6 ± 0.31 kg/m3
viscosity (313.15 K): 0.6851 ± 0.0061 mPa·s
speed of sound (313.15 K): 1411.5 ± 1.6 m/s
mass density (313.15 K): 931.1 ± 0.32 kg/m3
viscosity (318.15 K): 0.6642 ± 0.006 mPa·s
speed of sound (318.15 K): 1392.6 ± 1.6 m/s
mass density (318.15 K): 926.6 ± 0.33 kg/m3

C=C(C)C(=O)OC [methyl methacrylate]
viscosity (288.15 K): 0.634 ± 0.0056 mPa·s
speed of sound (288.15 K): 1216.8 ± 1.4 m/s
mass density (288.15 K): 949.1 ± 0.26 kg/m3
viscosity (293.15 K): 0.5903 ± 0.0053 mPa·s
speed of sound (293.15 K): 1200.5 ± 1.4 m/s
mass density (293.15 K): 943.37 ± 0.25 kg/m3
viscosity (298.15 K): 0.5544 ± 0.005 mPa·s
speed of sound (298.15 K): 1183.6 ± 1.4 m/s
mass density (298.15 K): 937.63 ± 0.25 kg/m3
viscosity (303.15 K): 0.5251 ± 0.0048 mPa·s
speed of sound (303.15 K): 1168.5 ± 1.4 m/s
mass density (303.15 K): 931.89 ± 0.26 kg/m3
viscosity (308.15 K): 0.496 ± 0.0046 mPa·s
speed of sound (308.15 K): 1152.6 ± 1.3 m/s
mass density (308.15 K): 926.15 ± 0.27 kg/m3
viscosity (313.15 K): 0.4723 ± 0.0044 mPa·s
speed of sound (313.15 K): 1135.4 ± 1.3 m/s
mass density (313.15 K): 920.41 ± 0.28 kg/m3
viscosity (318.15 K): 0.4499 ± 0.0042 mPa·s
speed of sound (318.15 K): 1118.3 ± 1.3 m/s
mass density (318.15 K): 914.66 ± 0.29 kg/m3

— the NIST ThermoML archive (doi:10.1016/j.jct.2013.01.013)
